Measurements reported in BindingDB's records for doi:10.1021/jm9701583 (R.W. Johnson Pharmaceutical Research Institute, 1997).

Target: DNA gyrase (Escherichia coli)
Test: Inhibition of supercoiling activity of DNA gyrase in Escherichia coli

SMILES | IC50
CC(c1ccc2c(ccc3ccccc32)c1)N(O)C(=O)c1ccccc1-c1ccccc1C(=O)O (stereo unspecified) | 205 µM
COc1cc(C(C)N(O)C(=O)c2ccccc2-c2ccccc2C(=O)O)cc(OC)c1OC (stereo unspecified) | > 1100 µM
CC(c1ccc(N2CCN(c3ccccc3)CC2)cc1)N(O)C(=O)c1ccccc1-c1ccccc1C(=O)O (stereo unspecified) | > 958 µM
CC(c1ccc2c(c1)Nc1ccccc1S2)N(O)C(=O)c1ccccc1-c1ccccc1C(=O)O (stereo unspecified) | 1360 µM
CC(c1ccccc1)N(O)C(=O)c1ccccc1-c1ccccc1C(=O)O (stereo unspecified) | > 1380 µM
CC(c1ccc2oc(-c3ccccc3)cc2c1)N(O)C(=O)c1ccccc1-c1ccccc1C(=O)O (stereo unspecified) | 121 µM
